# Reference: the supplement of paper PMC4858399
# Structures can show the parent of a compound that is named as a salt.
# Assays:
# Conditions in all cases: exposure time 48 h
# [1] = system: Caenorhabditis elegans N2; experiment: AC50 for larval growth inhibition (Hill fit); higher = less potent
# Method in brief: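 AC50 values come from a constrained Hill fit by weighted genetic-algorithm regression and are censored when out of range. The fit used only wells with at least 10 worms. Each well of a 96-well plate held 50 synchronised C. elegans N2 L1 larvae in K-medium with killed OP50, 1% DMSO and 0.5–200 µM chemical for 48 h at 20°C. A COPAS Biosort recorded each worm's size as extinction, which was log-transformed and averaged per well.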
# [2] = system: Caenorhabditis elegans N2; experiment: lowest effective concentration for larval growth inhibition (size below effect threshold); higher = less potent
# Method in brief: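 L1 larvae of C. elegans N2 (50 per 96-well) were grown in K-medium with killed bacteria and 1% DMSO, with the chemical at 0.5, 1, 5, 10, 50, 100 or 200 µM, for 48 h at 20°C. Per-worm extinction from the Biosort stood for size and was log-transformed into well means. For each chemical, the lowest effective concentration is the first dose where plate-adjusted mean size falls under the threshold and stays under it at the higher doses, using a threshold of 5.665.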
# [3] = system: Caenorhabditis elegans N2; experiment: mean nematode size ln(EXT) after 48 h, plate-adjusted (DMSO control set to 6) (ln(EXT), control-adjusted); higher = larger nematodes / less growth inhibition
# Method in brief: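 In K-medium with killed OP50, 1% DMSO and 0.5–200 µM chemical, synchronised N2 L1 larvae of C. elegans (50 per well) grew for 48 h at 20°C. Extinction was read for every worm on the Biosort, with debris removed by a growth model. Natural-log values averaged per well gave mean size, which was corrected per plate by subtracting the vehicle control mean and adding 6.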
SMILES,AC50 for larval growth inhibition [1] [µM],lowest effective concentration [2] [µM],mean nematode size ln(EXT) (ln) ([3]; 0.5 µM),mean nematode size ln(EXT) (ln) ([3]; 1 µM),mean nematode size ln(EXT) (ln) ([3]; 5 µM),mean nematode size ln(EXT) (ln) ([3]; 10 µM),mean nematode size ln(EXT) (ln) ([3]; 50 µM),mean nematode size ln(EXT) (ln) ([3]; 100 µM),mean nematode size ln(EXT) (ln) ([3]; 200 µM)
COP(=O)(OC)SCn1c(=O)oc2cc(Cl)cnc21 [Azamethiphos],> 200,200,6.07,5.94,5.91,5.93,5.88,5.75,5.57
CSC(=O)c1cccc2nnsc12 [Acibenzolar-S-Methyl],> 200,10,5.65,5.73,5.67,5.6,5.37,5.36,5.36
CCOc1cc(Oc2ccc(C(F)(F)F)cc2Cl)ccc1[N+](=O)[O-] [Oxyfluorfen],3.64,≤ 0.5,5.57,5.42,4.64,3.99,3.63,3.63,3.46
Cc1c(F)c(F)c(COC(=O)[C@@H]2[C@H](/C=C(\Cl)C(F)(F)F)C2(C)C)c(F)c1F (racemic) [Tefluthrin],> 200,50,5.7,5.77,5.71,5.79,5.39,5.29,5.13
O=C1O[C@H]([C@@H](O)CO)C([O-])=C1O.[Na+] [(+)-Sodium L-ascorbate],132,50,5.84,5.88,5.78,5.85,5.29,5.05,3.96
C#CC(C)(C)NC(=O)c1cc(Cl)cc(Cl)c1 [Propyzamide],> 200,200,5.98,5.91,5.98,6.01,5.92,5.91,5.63
CCOC(=O)C(C)Oc1ccc(Oc2nc3ccc(Cl)cc3o2)cc1 (stereo not given) [Fenoxaprop-ethyl],76.3,100,5.83,6.04,6,5.97,5.68,5.4,5.18
"Clc1ccc(Cl)c(Cl)c1 [1,2,4-Trichlorobenzene]",186,200,5.82,5.79,5.69,5.76,5.66,5.84,4.27
CN1CCC[C@H]1c1cccnc1 [Nicotine],> 200,100,5.88,5.83,5.83,5.87,5.87,5.38,5.56
CN(C)[C@@H]1C(=O)C(C(N)=O)=C(O)[C@@]2(O)C(=O)C3=C(O)c4c(O)cccc4[C@@](C)(O)[C@H]3[C@H](O)[C@@H]12 [Oxytetracycline hydrochloride],81.4,100,5.99,5.96,5.95,6.01,5.9,5.64,5.48
CCN(CC)C(=O)c1cc(S(=O)(=O)Cc2ccccc2)c(N2CCC(c3ccccc3)CC2)cc1N(CC)CCN(C)C,72.6,10,5.74,5.7,5.67,5.57,4.82,4.3,3.47
"N#CC(Br)(Br)C(N)=O [2,2-Dibromo-3-nitrilopropionamide]",> 200,200,6.09,6.03,6.04,6.07,5.96,5.94,5.57
CNc1cnn(-c2cccc(C(F)(F)F)c2)c(=O)c1Cl [Norflurazon],104,200,5.99,5.96,6.11,6.19,6.05,5.79,5.15
CN[C@H]1CC[C@@H](c2ccc(Cl)c(Cl)c2)c2ccc(S(N)(=O)=O)cc21,90.3,50,5.87,5.84,5.88,5.84,5.4,4.42,3.62
"Nc1nc(N)c2nc(CNc3ccc(C(=O)NC(CCC(=O)O)C(=O)O)cc3)cnc2n1 (stereo not given) [Aminofolic acid, 4-]",> 200,200,5.89,5.91,5.86,5.86,5.82,5.82,5.39
COP(=S)(OC)Oc1ccc([N+](=O)[O-])cc1 [Parathion-methyl],15.1,5,5.71,5.8,5.52,5.25,3.72,3.66,3.7
FC(F)C(F)(F)OCC(Cn1cncn1)c1ccc(Cl)cc1Cl (stereo not given) [Tetraconazole],48.5,10,5.81,5.97,5.98,5.65,4.91,4.36,4.07
O=C(O)[C@@H]1[C@H](C(=O)O)[C@H]2CC[C@@H]1O2 [Endothal],> 200,200,5.86,5.85,5.91,5.82,5.56,5.71,5.15
Cc1nc(-c2ccc3c(c2)CCN(CCC2CCC(NC(=O)/C=C/c4ccc(F)cc4)CC2)CC3)no1 (stereo not given),> 200,100,5.87,5.83,5.82,5.86,5.74,5.6,5.59
CCOP(=S)(OCC)SCSP(=S)(OCC)OCC [Ethion],99.2,1,5.78,5.62,5.28,5.04,4.93,4.85,4.06
COc1ccc(C(c2ccc(OC)cc2)C(Cl)(Cl)Cl)cc1 [Methoxychlor],39,≤ 0.5,5.6,5.46,5.58,5.19,4.71,4.01,3.61
Oc1ccc2c(c1)-c1ccccc1C2 [3-Hydroxyfluorene],97.8,50,5.81,5.96,5.84,5.97,5.6,4.66,3.77
"CCCCCCCCN(C)C [N,N-Dimethyloctylamine]",> 200,200,5.85,5.83,5.81,5.79,5.85,5.88,5.65

SMILES,AC50 for larval growth inhibition [1] [µM],lowest effective concentration [2] [µM],mean nematode size ln(EXT) (ln) ([3]; 0.5 µM),mean nematode size ln(EXT) (ln) ([3]; 1 µM),mean nematode size ln(EXT) (ln) ([3]; 5 µM),mean nematode size ln(EXT) (ln) ([3]; 10 µM),mean nematode size ln(EXT) (ln) ([3]; 50 µM),mean nematode size ln(EXT) (ln) ([3]; 100 µM),mean nematode size ln(EXT) (ln) ([3]; 200 µM)
CCOC(=O)COc1cc(-n2ncc(C(F)(F)F)c(C)c2=O)c(F)cc1Cl [Flufenpyr-ethyl],> 200,200,5.85,5.76,5.8,5.87,5.88,5.91,5.57
CCc1cccc(CC)c1N(COC)C(=O)CCl [Alachlor],> 200,200,6.11,6.07,6.12,6.1,5.76,5.74,5.1
Cc1oc(-c2ccccc2)nc1CCOc1cccc2c1ccn2CCC(=O)O,> 200,200,5.73,5.92,5.85,5.73,5.67,5.81,5.52
Sc1nc2ccccc2s1 [2-Mercaptobenzothiazole],> 200,100,5.83,5.81,5.8,5.76,5.69,5.59,5.57
CNCc1cc(F)ccc1Oc1ccc(Cl)c(Cl)c1,39.1,10,5.86,5.78,5.86,5.24,4.33,4.11,3.59
"CC(C)(C)c1cc(C(C)(C)C)c(O)c(C(C)(C)C)c1 [2,4,6-Tris(tert-butyl)phenol]",> 200,50,5.84,5.9,5.94,5.7,5.58,5.4,4.67
Cc1c(C)c2c(c(C)c1O)CCC(C)(COc1ccc(CC3SC(=O)NC3=O)cc1)O2 (stereo not given) [Troglitazone],47.7,50,5.7,5.77,5.66,5.69,4.39,4.11,3.59
CC(=O)[O][Hg][c]1ccccc1 [Phenylmercuric acetate],1.02,≤ 0.5,5.43,5.07,4.25,3.93,4.09,4.09,3.02
CCOc1cccc(C2(N3CCN(c4ccccc4)CC3)CCC(C)CC2)c1 (stereo not given),> 200,200,5.73,5.87,5.72,5.79,5.69,5.67,5.56
CCOc1cc(C(C)(C)C)ccc1C1COC(c2c(F)cccc2F)=N1 (stereo not given) [Etoxazole],2.3,1,5.74,5.16,4.48,4.32,4.37,3.91,3.44
Cc1ccc2ncccc2c1 [6-Methylquinoline],> 200,200,5.98,5.83,5.87,5.76,5.74,5.67,5.52
Oc1cccc2cccnc12 [8-Hydroxyquinoline],> 200,200,5.89,5.92,5.91,5.83,5.78,5.72,5.56
"Nc1ccccc1N [1,2-Phenylenediamine]",> 200,50,5.84,5.95,5.92,5.74,5.66,5.46,5.19
COCCOc1cc2cc(C(=O)NC3CCN(C(C)C)CC3)n(CC(=O)Nc3ccc(Cl)cn3)c2cn1,47.5,50,5.85,5.84,5.82,5.77,4.98,4.13,5.19
"O=C=NCCCCCCN=C=O [1,6-Diisocyanatohexane]",> 200,200,5.82,5.86,5.84,5.84,5.94,5.93,5.66
CN(C)C(=O)Nc1ccc(Cl)cc1 [Monuron],> 200,200,5.99,6,5.94,5.98,5.86,5.79,5.34
C=C(C)[C@H]1Cc2c(ccc3c2O[C@@H]2COc4cc(OC)c(OC)cc4[C@@H]2C3=O)O1 [Rotenone],181,200,5.16,6.51,6.12,6.26,6.39,6.45,4.07
CCCCCCCCCCCCc1ccc(S(=O)(=O)O)cc1 [4-Dodecylbenzenesulfonic acid],27.5,≤ 0.5,5.45,5.6,5.55,5.63,4.03,3.77,3.53
CCNS(=O)(=O)C(F)(F)C(F)(F)C(F)(F)C(F)(F)C(F)(F)C(F)(F)C(F)(F)C(F)(F)F [Sulfluramid],31.4,5,5.81,5.84,5.48,5.23,4.32,4.08,3.24
O=S(=O)(O)C(F)(F)C(F)(F)C(F)(F)C(F)(F)C(F)(F)C(F)(F)F [Potassium perfluorohexanesulfonate],> 200,100,5.85,5.87,5.87,5.85,5.76,5.55,5.31
CNC(=O)Oc1cccc(/N=C/N(C)C)c1 [Formetanate hydrochloride],62.8,100,5.85,6.01,6,5.93,5.73,5.59,5.47
CCCCCCC(C)OC(=O)COc1nc(F)c(Cl)c(N)c1Cl (stereo not given) [Fluroxypyr-meptyl],185,200,5.84,5.84,6.02,5.94,5.83,6.29,4.64
